The test system of this data set is CCRIS mutagenicity, Ames/micronucleus/aberration tests. The experiment in a line: CCRIS mutagenicity studies.
Where [1] appears, read: Test System: AMES SALMONELLA TYPHIMURIUM, Strain/Indicator: TA98, Metabolic Activation: NONE, Method: PREINCUBATION
Setting [2] is: Test System: AMES SALMONELLA TYPHIMURIUM, Strain/Indicator: TA100, Metabolic Activation: NONE, Method: PREINCUBATION
The mark [3] stands for this setting: Test System: AMES SALMONELLA TYPHIMURIUM, Strain/Indicator: TA1535, Metabolic Activation: NONE, Method: PREINCUBATION
[4] abbreviates: Test System: AMES SALMONELLA TYPHIMURIUM, Strain/Indicator: TA1537, Metabolic Activation: NONE, Method: PREINCUBATION
[5] abbreviates: Test System: AMES SALMONELLA TYPHIMURIUM, Strain/Indicator: TA1538, Metabolic Activation: NONE, Method: PREINCUBATION
[6] abbreviates: Test System: AMES SALMONELLA TYPHIMURIUM, Strain/Indicator: TA98, Metabolic Activation: NONE, Method: STANDARD PLATE.
Setting [7] is: Test System: AMES SALMONELLA TYPHIMURIUM, Strain/Indicator: TA100, Metabolic Activation: NONE, Method: STANDARD PLATE.
Setting [8] is: Test System: AMES SALMONELLA TYPHIMURIUM, Strain/Indicator: TA98, Metabolic Activation: RAT, LIVER, S-9, AROCLOR 1254, Method: STANDARD PLATE.
Setting [9] is: Test System: AMES SALMONELLA TYPHIMURIUM, Strain/Indicator: TA100, Metabolic Activation: RAT, LIVER, S-9, AROCLOR 1254, Method: STANDARD PLATE.

Activity calls are given as the source filed them. No rule for the calls is given here.

Take `Clc1ccc(C(Cl)(Cl)Cl)cc1`: the mutagenic call was “active; positive (structural changes)” (End Point: IN VITRO CHROMOSOMAL ABERRATIONS, Test System: CHL CELLS, Metabolic Activation: NONE); “active; positive (structural changes)” (End Point: IN VITRO CHROMOSOMAL ABERRATIONS, Test System: CHL CELLS, Metabolic Activation: RAT, LIVER, S-9, SODIUM PHENOBARBITAL AND 5,6-BENZOFLAVONE); “inactive; negative” under setting [1]; “active; positive” (Test System: AMES SALMONELLA TYPHIMURIUM, Strain/Indicator: TA98, Metabolic Activation: RAT LIVER S-9, PHENOBARBITAL AND BETA-NAPHTHOFLAVONE, Method: PREINCUBATION); “inactive; negative” under setting [2]; “active; positive” (Test System: AMES SALMONELLA TYPHIMURIUM, Strain/Indicator: TA100, Metabolic Activation: RAT LIVER S-9, PHENOBARBITAL AND BETA-NAPHTHOFLAVONE, Method: PREINCUBATION). The mutagenic call is, setting by setting: under setting [3], “inactive; negative”; (Test System: AMES SALMONELLA TYPHIMURIUM, Strain/Indicator: TA1535, Metabolic Activation: RAT LIVER S-9, PHENOBARBITAL AND BETA-NAPHTHOFLAVONE, Method: PREINCUBATION) “active; positive”; under setting [4], “inactive; negative”; (Test System: AMES SALMONELLA TYPHIMURIUM, Strain/Indicator: TA1537, Metabolic Activation: RAT LIVER S-9, PHENOBARBITAL AND BETA-NAPHTHOFLAVONE, Method: PREINCUBATION) “active; positive”; under setting [5], “inactive; negative”; (Test System: AMES SALMONELLA TYPHIMURIUM, Strain/Indicator: TA1538, Metabolic Activation: RAT LIVER S-9, PHENOBARBITAL AND BETA-NAPHTHOFLAVONE, Method: PREINCUBATION) “inactive; negative”. In addition, the mutagenic call by setting is: (Test System: E.COLI, Strain/Indicator: WP2UVRA, Metabolic Activation: NONE, Method: PREINCUBATION) “inactive; negative”; (Test System: E.COLI, Strain/Indicator: WP2UVRA, Metabolic Activation: RAT LIVER S-9, PHENOBARBITAL AND BETA-NAPHTHOFLAVONE, Method: PREINCUBATION) “active; positive”.
For `ClCc1cc2cccc3ccc4cc5ccccc5c1c4c32`, the mutagenic call under setting [6] was “active; positive” and the mutagenic call under setting [7] was “active; positive”.
Take `CNc1ccnc(-c2cc(N(C)C)ccn2)c1.CNc1ccnc(-c2cc(N(C)C)ccn2)c1.F[P-](F)(F)(F)(F)F.F[P-](F)(F)(F)(F)F.F[P-](F)(F)(F)(F)F.F[P-](F)(F)(F)(F)F.[NH3+]Cc1ccnc(-c2cc(C[NH3+])ccn2)c1.[Os+2]`: the mutagenic call reads like this: under setting [6], “inactive; negative”; under setting [8], “inactive; negative”; under setting [7], “inactive; negative”; under setting [9], “inactive; negative”.
Take `CC(C)(C)c1ccc(/C=C/c2ccc(N)cc2)cc1`: the mutagenic call is “inactive; negative” under setting [6]; “inactive; negative” (Test System: AMES SALMONELLA TYPHIMURIUM, Strain/Indicator: TA98, Metabolic Activation: RAT, LIVER, S-9, AROCLOR, Method: STANDARD PLATE); “inactive; negative” under setting [7]; “inactive; negative” (Test System: AMES SALMONELLA TYPHIMURIUM, Strain/Indicator: TA100, Metabolic Activation: RAT, LIVER, S-9, AROCLOR, Method: STANDARD PLATE).
Turning to `O=[N+]([O-])c1ccc2c3cccc4cccc(c5c([N+](=O)[O-])ccc1c25)c43`, the mutagenic call (Test System: AMES SALMONELLA TYPHIMURIUM, Strain/Indicator: TA98(1,8-DNP6), Metabolic Activation: NONE, Method: STANDARD PLATE) is “active; positive”; the mutagenic call (Test System: AMES SALMONELLA TYPHIMURIUM, Strain/Indicator: TA98(NR), Metabolic Activation: NONE, Method: STANDARD PLATE) was “active; positive”; the mutagenic call under setting [6] is “active; positive”; the mutagenic call (Test System: AMES SALMONELLA TYPHIMURIUM, Strain/Indicator: TA98, Metabolic Activation: NONE, Method: STANDARD PLATE (ANAEROBIC)) is “active; positive”; the mutagenic call under setting [8] was “active; positive”; the mutagenic call under setting [7] was “inactive; negative”. Besides, under setting [9], the mutagenic call is “active; positive”.
As to `CCc1cn([C@H]2C[C@H](O)[C@@H](CO)O2)c(=O)[nH]c1=O`, the mutagenic call is, setting by setting: (Test System: AMES SALMONELLA TYPHIMURIUM, Strain/Indicator: TA97, Metabolic Activation: NONE, Method: PREINCUBATION) “inactive; negative”; (Test System: AMES SALMONELLA TYPHIMURIUM, Strain/Indicator: TA97, Metabolic Activation: RAT, LIVER, S-9, AROCLOR 1254, Method: PREINCUBATION) “inactive; negative”; under setting [1], “inactive; negative”; under setting [6], “inactive; negative”; (Test System: AMES SALMONELLA TYPHIMURIUM, Strain/Indicator: TA98, Metabolic Activation: RAT, LIVER, S-9, AROCLOR 1254, Method: PREINCUBATION) “inactive; negative”; under setting [8], “inactive; negative”. In addition, the mutagenic call by setting is: under setting [2], “inactive; negative”; under setting [7], “inactive; negative”; (Test System: AMES SALMONELLA TYPHIMURIUM, Strain/Indicator: TA100, Metabolic Activation: RAT, LIVER, S-9, AROCLOR 1254, Method: PREINCUBATION) “inactive; negative”; under setting [9], “inactive; negative”; (Test System: AMES SALMONELLA TYPHIMURIUM, Strain/Indicator: TA102, Metabolic Activation: NONE, Method: PREINCUBATION) “inactive; negative”; (Test System: AMES SALMONELLA TYPHIMURIUM, Strain/Indicator: TA102, Metabolic Activation: RAT, LIVER, S-9, AROCLOR 1254, Method: PREINCUBATION) “inactive; negative”. Besides, the mutagenic call reads like this: (Test System: AMES SALMONELLA TYPHIMURIUM, Strain/Indicator: TA104, Metabolic Activation: NONE, Method: PREINCUBATION) “inactive; negative”; (Test System: AMES SALMONELLA TYPHIMURIUM, Strain/Indicator: TA104, Metabolic Activation: RAT, LIVER, S-9, AROCLOR 1254, Method: PREINCUBATION) “inactive; negative”; under setting [3], “inactive; negative”; (Test System: AMES SALMONELLA TYPHIMURIUM, Strain/Indicator: TA1535, Metabolic Activation: RAT, LIVER, S-9, AROCLOR 1254, Method: PREINCUBATION) “inactive; negative”; under setting [4], “inactive; negative”; (Test System: AMES SALMONELLA TYPHIMURIUM, Strain/Indicator: TA1537, Metabolic Activation: NONE, Method: STANDARD PLATE) “inactive; negative”. Further, the mutagenic call runs as follows: (Test System: AMES SALMONELLA TYPHIMURIUM, Strain/Indicator: TA1537, Metabolic Activation: RAT, LIVER, S-9, AROCLOR 1254, Method: PREINCUBATION) “inactive; negative”; (Test System: AMES SALMONELLA TYPHIMURIUM, Strain/Indicator: TA1537, Metabolic Activation: RAT, LIVER, S-9, AROCLOR 1254, Method: STANDARD PLATE) “inactive; negative”; under setting [5], “inactive; negative”; (Test System: AMES SALMONELLA TYPHIMURIUM, Strain/Indicator: TA1538, Metabolic Activation: RAT, LIVER, S-9, AROCLOR 1254, Method: PREINCUBATION) “inactive; negative”; (Test System: CHINESE HAMSTER V-79, Strain/Indicator: V-79/8-AZAGUANINE, Metabolic Activation: NONE) “inactive; negative”.
